According to paper PMC8867573 (ACS Omega, 2022):
Where two headings read alike, the source gives them in different places.

What was measured:
[1] = biological target: T1, ScSLAC (small laccase, SLAC) (Streptomyces coelicolor, UniProt Q9XAL8); assay: spectrophotometric oxidation, […] nm, Michaelis-Menten or substrate inhibition fit; assay type: biochemical; conditions: read-out: DMP; pH 8.0, 42 °C; 0.25-15 mM substrate
T1 sequence (Q9XAL8 34-343): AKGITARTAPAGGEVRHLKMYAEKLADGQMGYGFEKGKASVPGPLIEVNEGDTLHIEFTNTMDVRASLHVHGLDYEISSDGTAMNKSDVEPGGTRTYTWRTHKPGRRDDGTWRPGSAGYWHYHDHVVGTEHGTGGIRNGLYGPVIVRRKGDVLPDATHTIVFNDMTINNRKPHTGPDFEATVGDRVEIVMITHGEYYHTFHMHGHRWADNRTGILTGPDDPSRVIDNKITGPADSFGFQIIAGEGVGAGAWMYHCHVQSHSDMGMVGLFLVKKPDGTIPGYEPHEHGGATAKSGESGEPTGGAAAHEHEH

[2] = biological target: T1, ScSLAC (small laccase, SLAC); assay: as above; conditions: read-out: Pyrogallol; pH 8.5, 42 °C; 0.025-1 mM substrate

| Km [1] [µM] | Km [2] [µM] | SMILES |
| --- | --- | --- |
| 1100 ± 60 |  | COc1cccc(OC)c1O [DMP, 2,6-dimethoxyphenol] |
|  | 200 ± 60 | Oc1cccc(O)c1O [Pyrogallol] |
